Reference: US7893110B2 (Givaudan S.A., priority 2005, dated 2011)

Tests used:
[1] = system: mouth; experiment: Application in toothpaste: cooling sensation felt by panelist; format: in vivo; conditions: toothgel with 2.5 g of 2% sol. in PG per 100 g, plus peppermint oil; 1 g brushed on teeth, mouth rinsed with water
From the text: [table] The chemicals are mixed in the toothgel, and 1 g of the toothgel is put on a toothbrush and a panelist's teeth are brushed. The mouth is rinsed with water and the water is spit out.

[2] = system: mouth; experiment: Application in mouthwash: cooling sensation; format: in vivo; conditions: mouthwash with 50 mL of 1% sol. in alcohol per liter, plus peppermint oil; 30 mL put in the mouth, swished, gargled and spit out
Protocol: [table] All the ingredients are mixed. 30 mL of obtained solution is put in the mouth, swished around, gargled and spit out.

Compound	cooling sensation in the mouth [1]	cooling sensation in the mouth [2]
COc1ccc(NC(=O)C23CC4CC(CC(C4)C2)C3)cc1 [Example 2F, Adamantane-1-carboxylic acid (4-methoxy-phenyl)-amide]	cooling sensation	
CC(C)(C)C1CCCCC1C(=O)Nc1ccc(CO)cc1 (centres unmarked) [Example 2L, 2-tert-Butyl-cyclohexanecarboxylic acid (4-hydroxymethyl-phenyl)-amide]		strong cooling sensation
